According to ChEMBL document CHEMBL1201862, “PubChem BioAssay data set” (2004):
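Interpolation was linear, between the two tested concentrations surrounding the appropriate level; five concentrations were tested over 48 hours in 96-well plates. GI50 = concentration required for 50% inhibition of growth.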 Calls of active or inactive are those of the source. Rule as the data show it: active = GI50 up to about 1.1 µM and inactive = higher.

Tests used:
Assay in all cases: NCI-60 cell line screen, 48 h
UACC-62 = tested on: UACC-62
CCRF-CEM = tested on: CCRF-CEM
M14 = tested on: M14
Malme-3M = tested on: Malme-3M
SF-268 = tested on: SF-268
EKVX = tested on: EKVX
HOP-62 = tested on: HOP-62
A549 = tested on: A549
SW-620 = tested on: SW-620
UACC-257 = tested on: UACC-257
KM-20L2 = tested on: KM-20L2
HCT-116 = tested on: HCT-116
LOX IMVI = tested on: LOX IMVI
HT-29 = tested on: HT-29
HCT-15 = tested on: HCT-15
NCI/ADR-RES = tested on: NCI/ADR-RES
OVCAR-5 = tested on: OVCAR-5
UO-31 = tested on: UO-31
RXF 393 = tested on: RXF 393
HCC 2998 = tested on: HCC 2998

Structure (SMILES) | GI50 (UACC-62) | GI50 (CCRF-CEM) | GI50 (M14) | GI50 (Malme-3M) | GI50 (SF-268) | GI50 (EKVX) | GI50 (HOP-62) | GI50 (A549) | GI50 (SW-620) | GI50 (UACC-257) | GI50 (KM-20L2) | GI50 (HCT-116) | GI50 (LOX IMVI) | GI50 (HT-29) | GI50 (HCT-15) | GI50 (NCI/ADR-RES) | GI50 (OVCAR-5) | GI50 (UO-31) | GI50 (RXF 393) | GI50 (HCC 2998)
CN(O)C(=S)c1ccccc1 | 1.85 µM (inactive) | 0.105 µM (active) | 3.98 µM (inactive) | 7.82 µM (inactive) | 6.43 µM (inactive) | 15.5 µM (inactive) | 11.4 µM (inactive) | 4.26 µM (inactive) | 1.25 µM (inactive) | 13.1 µM (inactive) | 3.24 µM (inactive) | 1.49 µM (inactive) | 1.57 µM (inactive) | 0.312 µM (active) | 2.47 µM | 0.746 µM (active) | 78.5 µM (inactive) | 5.35 µM (inactive) | 3.19 µM (inactive) | 6.34 µM (inactive)
O=C(O/N=C1/CCC/C1=C\c1ccccc1)c1ccc(Cl)cc1 | > 80.4 µM (inactive) | > 100 µM (inactive) | > 100 µM (inactive) | > 100 µM (inactive) | > 77.4 µM (inactive) | > 67.3 µM (inactive) | > 54.3 µM (inactive) | 64 µM (inactive) | > 100 µM (inactive) | > 100 µM (inactive) | > 100 µM (inactive) | > 100 µM (inactive) | > 100 µM (inactive) | > 100 µM (inactive) | > 100 µM |  | > 100 µM (inactive) | 58.9 µM (inactive) | 18 µM (inactive) | > 100 µM (inactive)
Cc1nc(-n2nc(-c3ccccc3)cc2-c2ccccc2)sc1C(/C=C/c1ccc([N+](=O)[O-])cc1)=N/NC(N)=S | 54.8 µM (inactive) | 22.2 µM (inactive) | 43 µM (inactive) | > 100 µM (inactive) | 31.4 µM (inactive) | > 100 µM (inactive) | 14 µM (inactive) | 97.3 µM (inactive) | > 10 µM (inactive) | 78.3 µM (inactive) | 40.5 µM (inactive) | 15.8 µM (inactive) | > 10 µM (inactive) | 23.7 µM (inactive) | 28.4 µM |  | 83.6 µM (inactive) | 7.41 µM (inactive) | 54.1 µM (inactive) | 23.1 µM (inactive)
COc1cccc2c1C1(O)C2CCCC12OCCCO2 (stereo unspecified) | > 100 µM (inactive) | > 100 µM (inactive) | > 100 µM (inactive) | > 100 µM (inactive) | > 100 µM (inactive) |  | > 100 µM (inactive) | > 100 µM (inactive) | > 100 µM (inactive) | > 100 µM (inactive) | > 100 µM (inactive) | > 100 µM (inactive) | > 100 µM (inactive) | > 100 µM (inactive) | > 100 µM |  | > 100 µM (inactive) | > 100 µM (inactive) | > 100 µM (inactive) | > 100 µM (inactive)
COc1cc(C(C)O)c[n+](Cc2ccccc2)c1 (stereo unspecified) | > 100 µM (inactive) | > 100 µM (inactive) | > 100 µM (inactive) | > 100 µM (inactive) | > 100 µM (inactive) | > 100 µM (inactive) | > 100 µM (inactive) | > 100 µM (inactive) | > 100 µM (inactive) | > 100 µM (inactive) | > 100 µM (inactive) | > 100 µM (inactive) | > 100 µM (inactive) | > 100 µM (inactive) | > 100 µM |  | > 100 µM (inactive) | > 100 µM (inactive) | > 100 µM (inactive) | > 100 µM (inactive)
COC(=O)C1Cc2c(n(C)c3ccccc23)C(CCC(=O)O)N1Cc1ccccc1 (stereo unspecified) | 26.6 µM (inactive) | 25.4 µM (inactive) | 25.5 µM (inactive) | > 100 µM (inactive) | 26.4 µM (inactive) | 46.1 µM (inactive) | > 100 µM (inactive) | 31 µM (inactive) | 40.4 µM (inactive) | 43.2 µM (inactive) | 34.9 µM (inactive) | 21.2 µM (inactive) | 37.8 µM (inactive) | 36.1 µM (inactive) | 27.7 µM |  | 79.3 µM (inactive) | 21.2 µM (inactive) | 28.6 µM (inactive) | > 100 µM (inactive)
O=C(CC1(O)C(=O)Nc2ccccc21)c1ccc(O)cc1 (stereo unspecified) | > 100 µM (inactive) | > 100 µM (inactive) | > 100 µM (inactive) | > 100 µM (inactive) | > 100 µM (inactive) | > 100 µM (inactive) | > 100 µM (inactive) | > 100 µM (inactive) | > 100 µM (inactive) | > 100 µM (inactive) | > 100 µM (inactive) | > 100 µM (inactive) | > 100 µM (inactive) | > 100 µM (inactive) | > 100 µM |  | > 100 µM (inactive) | > 100 µM (inactive) | > 100 µM (inactive) | > 100 µM (inactive)
COC(=O)c1c(C(=O)OC)c(-c2ccccc2)n(-c2ccccc2)c(=O)c1-c1ccccc1 | 61 µM (inactive) | > 100 µM (inactive) | > 100 µM (inactive) | 61.2 µM (inactive) | 55.7 µM (inactive) | > 100 µM (inactive) | 27.6 µM (inactive) | 80.4 µM (inactive) | > 100 µM (inactive) | 71.8 µM (inactive) | > 100 µM (inactive) | 58.7 µM (inactive) | 84.5 µM (inactive) | > 100 µM (inactive) | > 100 µM |  | > 100 µM (inactive) | 59.7 µM (inactive) | 20.9 µM (inactive) | > 100 µM (inactive)
O=C1c2ccccc2C(=O)c2c1ccc1c3ccccc3n(-c3ccccc3)c21 | 14.7 µM (inactive) | 2.85 µM (inactive) | 12.4 µM (inactive) | 28.7 µM (inactive) | 23 µM (inactive) | 41.3 µM (inactive) | 49.5 µM (inactive) | 27.7 µM (inactive) | 15.8 µM (inactive) | 20.7 µM (inactive) | 21.5 µM (inactive) | 19.7 µM (inactive) | 14.5 µM (inactive) | 16.7 µM (inactive) | 16.1 µM | 39.7 µM (inactive) | 27 µM (inactive) | 21.3 µM (inactive) | 14.1 µM (inactive) | 46.6 µM (inactive)
O=CN/C=C/c1ccccc1 | > 100 µM (inactive) | > 100 µM (inactive) | > 100 µM (inactive) | > 100 µM (inactive) | > 100 µM (inactive) | > 100 µM (inactive) | > 100 µM (inactive) | > 100 µM (inactive) | > 51.2 µM (inactive) | > 100 µM (inactive) | > 100 µM (inactive) | > 100 µM (inactive) | > 100 µM (inactive) | > 100 µM (inactive) | > 100 µM |  | > 100 µM (inactive) | > 87.3 µM (inactive) | > 100 µM (inactive) | > 100 µM (inactive)
